Data reported in US20180110754A1, “CENICRIVIROC FOR THE TREATMENT OF FIBROSIS” (Tobira Therapeutics, Inc., priority 2015, published 2018).

Columns and labels:
[1] = system: STAM mouse model of Non-alcoholic Steatohepatitis (NASH-derived HCC); assay: STAM mouse model of NASH, week 18 (anti-HCC effects); conditions: for Mice that died before sacrifice (survival analysis): weeks 6-18
Experimental: Group 1—Vehicle: Eighteen NASH mice were orally administered vehicle at a volume of 10 mL/kg twice daily (9:00 and 19:00) from 6 weeks of age.

[2] = biological target: CCR1 (Homo sapiens, UniProt P32246); assay: Inhibition of ligand binding to CCR1
[3] = system: HIV-1 BaL; assay: Extracellular virus (viral RNA, p24) in culture fluids of PM-1 cells exposed to HIV-1 BaL; format: cell-based; conditions: 4 hrs post-infection, CVC 20 nM, MVC 50 nM
From the text: Cells. PM-1 cells that express CD4, CCR5, and CXCR4 were maintained in RPMI-1640 medium containing 10% fetal bovine serum (R10 medium) at 37C, 5% CO2. 293T cells used for transfection were maintained in DMEM at 10% FBS, L-glutamine, and antibiotics (D10 medium) at 37C, 5% CO2. Virus Stocks. HIV-1 BaL virus was produced by transfecting 293T cells with the plasmid pWT/BaL. Lipofectamine 2000 was used as a transfection agent. Culture supernatants were collected at 48 hrs post-transfection, filtered through a 0.45 μm pore filter, and treated with 50 units of benzonase per ml of virus stock for 20 minutes at 37C to remove contaminating plasmid DNA. Virus stocks were frozen at −80C to halt benzonase activity. Benzonase-treated virus stocks were propagated in cord blood mononuclear cells (CBMCs). CBMCs were stimulated for 72 h with phytohemagluttinin (PHA-M) in R10 medium prior to infection with HIV-1 BaL. The viral amplification culture was subsequently grown in R10 supplemented with interleukin 2 (IL-2) and incubated at 37C, 5% CO2.
Both drugs were incubated with PM-1 cells for 1 hr at 37 C prior to the addition of virus. 500 ng of p24 antigen of HIV-1 BaL were incubated per 5×10^5 cells in 1 ml of R10 media. Virus only controls, described as “no cell” in the text, were used to measure viral decay. Viral adsorption was measured in the no-drug controls, whereby 500 ng of p24 Ag of HIV-1 Bal were added per 5×10^5 PM-1 cells that were pre-incubated at 37 C for 1 hr in the absence of drug treatment. Each drug treatment and control was performed in duplicate. Viral RNA was extracted from 140 μl of supernatant fluid using the QIAamp Viral RNA mini kit according to manufacturer's instructions. Samples were stored at −80 C until analysis. Supernatant viral loads were measured using quantitative real-time reverse transcription PCR (qRT-PCR) with the primers US1SSF (5′-[…]-3′), US1SSR (5′-[…]-3′) and US1SS probe (5′-(FAM) […]) and the Invitrogen qRT-PCR Supermix Kit. Cycling parameters were: 50° C. for 15 minutes, 95° C. for 10 minutes, followed by 50 cycles of 95° C. for 15 seconds, and 60° C. for 1 minute. All values are the result of replicate testing over 2 independent experiments. RNA copy number was quantified by use of 10-fold serial dilutions of pBaL/wt to generate standard curves for each assay and calibrated against samples with known copy numbers from previous studies.

[4] = Mouse thioglycollate-induced peritonitis model: CVC plasma levels (LC/MS/MS); format: in vivo
Experimental: The lavage fluid was placed on wet ice pending processing for total and differential cell counts using the Advia analyzer. Following the lavage collection, a blood sample (0.7 mL) was collected from each mouse by intracardiac puncture or from the vena cava (collection time was recorded). 0.5 mL of blood was placed in an EDTA tube, transferred to clinical pathology and analyzed for differential cell counts using the Advia analyzer. 0.2 mL of blood was placed in a K2EDTA tube and processed to plasma. The plasma was collected by centrifugation (3000 rpm for 10 minutes at 4° C.) and placed on dry ice. The samples were analyzed to determine CVC plasma levels. After blood collection, the animals were then exsanguinated by sectioning of the abdominal aorta.
Animals received the test article by oral gavage from Days 1 to 5. The twice daily (BID) dosing in Groups 2 to 5 was separated by approximately 12 hours. Blood samples were collected on Day 6 for assessment of plasma levels. Samples were collected by intracardiac puncture or from the vena cava, placed in a K2EDTA tube, and processed to plasma. Samples were stored frozen at −70 to −90° until analyzed. Due to the sacrifice time (48 hours after thioglycollate administration) being dictated by the primary endpoint, samples were collected approximately 14 hours postdose for Groups 2-5 and 26 hours postdose for the remaining groups. No samples were collected for animals 105, 201, 303 and 503.

[5] = system: HIV-1; assay: Study 201 Phase 2a 10-day monotherapy: HIV-1 RNA and resistance; format: in vivo, human; conditions: for Median nadir change from baseline in HIV-1 RNA: 10 days
Experimental: Participants were required to be antiretroviral treatment-experienced, CCR5 antagonist-naive, with HIV-1 RNA levels of at least 5000 copies/mL and CD4+ cell counts of at least 250 cells/mm^3 was performed.
In Study 201, drug resistance testing was performed at Baseline, Day 7, and Day 40 (or at the “Early Termination” visit, if applicable).

[6] = biological target: CCR5 (Homo sapiens, UniProt P51681); assay: RANTES-induced CCR5 internalization / CCR5 receptor occupancy in PBMCs (flow cytometry); format: cell-based
Experimental: The capacity of each drug to inhibit CCR5 or CCR2 internalization was evaluated. Cell-surface expression of CCR5 and CCR2 was assessed by flow cytometry, and fluorescence values were converted into molecules of equivalent soluble fluorescence (MESF).

[7] = CVC-high 100 mg/kg/day, week 18
[8] = CVC-high 100 mg/kg/day, week 18, listed as Cenicriviroc
[9] = CVC-low 20 mg/kg/day, week 18, listed as Cenicriviroc

CCR5, sequence (P51681 whole entry): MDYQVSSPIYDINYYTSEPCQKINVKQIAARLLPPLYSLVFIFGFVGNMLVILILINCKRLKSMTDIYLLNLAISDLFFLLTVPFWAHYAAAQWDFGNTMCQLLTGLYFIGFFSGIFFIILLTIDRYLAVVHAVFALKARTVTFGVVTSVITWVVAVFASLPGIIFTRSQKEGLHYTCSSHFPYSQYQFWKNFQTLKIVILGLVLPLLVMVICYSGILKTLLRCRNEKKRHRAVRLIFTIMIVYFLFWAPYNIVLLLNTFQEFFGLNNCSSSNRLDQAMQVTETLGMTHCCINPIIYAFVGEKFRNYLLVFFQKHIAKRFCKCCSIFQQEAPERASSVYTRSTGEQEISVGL
CCR1, sequence (P32246 whole entry): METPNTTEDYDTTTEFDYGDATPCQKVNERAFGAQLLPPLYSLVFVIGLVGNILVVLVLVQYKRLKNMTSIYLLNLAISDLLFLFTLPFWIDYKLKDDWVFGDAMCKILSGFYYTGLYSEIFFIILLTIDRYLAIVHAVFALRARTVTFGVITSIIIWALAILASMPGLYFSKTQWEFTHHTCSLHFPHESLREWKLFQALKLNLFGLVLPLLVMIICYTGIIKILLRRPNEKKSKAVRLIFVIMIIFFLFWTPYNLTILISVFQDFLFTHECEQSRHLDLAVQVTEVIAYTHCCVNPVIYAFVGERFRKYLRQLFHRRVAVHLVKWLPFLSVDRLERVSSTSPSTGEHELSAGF

## CCCCOCCOc1ccc(-c2ccc3c(c2)/C=C(/C(=O)Nc2ccc([S@@+]([O-])Cc4cncn4CCC)cc2)CCCN3CC(C)C)cc1 [CVC, (S)-8-[4-(2-Butoxyethoxy)phenyl]-1-isobutyl-N-(4-{[(1-propyl-1H-imidazol-5-yl)methyl]sulfinyl}phenyl)-1,2,3,4-tetrahydro-1-benzazocine-5-carboxamide]
[1]; CVC treatment groups, week 18
  Effect on NASH-derived HCC: not observed
[1]; [7]
  Body weight: 20.8 ± 2.7 g
  CD31-positive area: 3.68±1.37%
  Liver weight: 1817 ± 446 mg
  Maximum diameter of visible tumor nodules: 5.3±5.1 mm
  Number of visible tumor nodules: 3.6±2.5
[1]; [8]
  Body weight: 20.8 ± 2.7 g
  CD31-positive area: 3.68 ± 1.37%
  Liver weight: 1817 ± 446 mg
  Maximum diameter of visible tumor nodules: 5.3 ± 5.1 mm
  Number of visible tumor nodules: 3.6 ± 2.5
[1]; CVC-high, week 18
  Mice with GS-positive nodules: seven out of seven
  Mice with HCC lesions (HE staining): six out of seven
[1]; CVC-high
  Mice that died before sacrifice (survival analysis): Five out of twelve
[1]; CVC-low 20 mg/kg/day, week 18
  Body weight: 22.9 ± 3.5 g
  CD31-positive area: 1.47±1.10%
  Liver weight: 1837 ± 410 mg
  Maximum diameter of visible tumor nodules: 4.8±5.4 mm
  Number of visible tumor nodules: 1.5±1.9
[1]; [9]
  Body weight: 22.9 ± 3.5 g
  CD31-positive area: 1.47 ± 1.10%
  Liver weight: 1837 ± 410 mg
  Maximum diameter of visible tumor nodules: 4.8 ± 5.4 mm
  Number of visible tumor nodules: 1.5 ± 1.9
[1]; CVC-low, week 18
  Mice with GS-positive nodules: five out of six
  Mice with HCC lesions (HE staining): five out of six
[1]; CVC-low
  Mice that died before sacrifice (survival analysis): Six out of twelve
[2]
  Inhibition of ligand binding to CCR1: did not inhibit
[3]; baseline 506 ng/ml
  p24 antigen level in culture fluids: 192 ng/mL
[3]; baseline 1.19×10^10
  Viral RNA in culture fluids: 1.26×10^10 copies/ml
[4]; BID dosing, Day 6
  Plasma levels at the approximate trough (14 hours postdose): increased in a dose-related manner
[4]; mouse, plasma, mice, Day 6, Group 3, 5 mg/kg/day (BID) oral, ~14 hours postdose (actual 14.5 hours), N=2, 3 of 5 samples below LLOQ (10 ng/mL)
  concentration at 14.5 h: 13.5 ng/mL
[4]; mouse, plasma, mice, Day 6, Group 4, 20 mg/kg/day (BID) oral, ~14 hours postdose (actual 15 hours)
  concentration at 15 h: 81.2 ± 22.8 ng/mL
[4]; mouse, plasma, mice, Day 6, Group 5, 100 mg/kg/day (BID) oral, ~14 hours postdose (actual 15.5 hours)
  concentration at 15.5 h: 551 ± 253 ng/mL
[4]; mouse, plasma, mice, Day 6, Group 6, 20 mg/kg/day (QD) oral, ~26 hours postdose (actual 28 hours)
  concentration at 28 h: 25.7 ± 8.1 ng/mL
[5]; 25 mg once daily
  Median nadir change from baseline in HIV-1 RNA: −0.7 log^10 copies/mL
[5]; 50 mg once daily
  Median nadir change from baseline in HIV-1 RNA: −1.6 log^10 copies/mL
[5]; 75 mg once daily
  Median nadir change from baseline in HIV-1 RNA: −1.8 log^10 copies/mL
[5]; 150 mg once daily
  Median nadir change from baseline in HIV-1 RNA: −1.7 log^10 copies/mL
[5]; all subjects with evaluable samples
  Drug resistance testing (Baseline, Day 7, Day 40): fully susceptible
[6]; CCR5, […] nM for CD4+ and 2.3 nM for CD8+ T-cells, ex vivo in humans
  receptor occupancy at […]: ≥ 90%
[6]; CD4+ T cells
  CCR5 receptor occupancy at saturation: ~91%
  Effective concentration at which saturation of CCR5 was reached: 3.1 nM
[6]; CD8+ T cells
  CCR5 receptor occupancy at saturation: ~90%
  Effective concentration at which saturation of CCR5 was reached: 2.3 nM
[6]; in the absence of RANTES
  Cell-surface expression of CCR5: increased cell-surface expression of CCR5
